The source of these data is patent publication US20130274233A1, “MODULATORS OF HEDGEHOG SIGNALING PATHWAY” (priority 2012, published 2013).

The structures appear in SMILES notation.

For the assay, the target named is T1, Smo::EGFP (Homo sapiens, UniProt Q99835).
T1 construct: expressed in transfected cells
The assay can be described thus: Cyc-induced Smo ciliary accumulation (Smo::EGFP/Ivs::tagRFPT cells). It is filed as cell-based. The settings on record: 5 μM Cyc. The protocol: Cells were cultured and treated in 384-well imaging plate precoated with poly-D-Lysine (Greiner Bio-one), fixed with 4% paraformaldehyde (Electron Microscopy Sciences), and stained with Hoechst (Invitrogen). Images were collected using Opera High Content Screening System (Perkin Elmer). Activityl)ase (IDBS Inc, Emeryvill, Calif.) and Pipeline Pilot (Accelrys, Inc. San Diego, Calif.) were used for high content screening data management and analysis. Acapella 2.0 software (Evotec Technologies/PerkinElmer) was used to perform multi-parametrical high content image quantification. All the images for comparison were scanned with identical microscopic settings and analyzed with the same input parameters.
Acapella 2.0 software (Evotec Technologies/PerkinElmer) was used to perform multi-parametric high content image quantification. Our image analysis script used Ivs::tagREPT to first determine the location of the PC and then Smo::EGFP to quantify the level of Smo present in the cilium.

T1 sequence (Q99835 28-787): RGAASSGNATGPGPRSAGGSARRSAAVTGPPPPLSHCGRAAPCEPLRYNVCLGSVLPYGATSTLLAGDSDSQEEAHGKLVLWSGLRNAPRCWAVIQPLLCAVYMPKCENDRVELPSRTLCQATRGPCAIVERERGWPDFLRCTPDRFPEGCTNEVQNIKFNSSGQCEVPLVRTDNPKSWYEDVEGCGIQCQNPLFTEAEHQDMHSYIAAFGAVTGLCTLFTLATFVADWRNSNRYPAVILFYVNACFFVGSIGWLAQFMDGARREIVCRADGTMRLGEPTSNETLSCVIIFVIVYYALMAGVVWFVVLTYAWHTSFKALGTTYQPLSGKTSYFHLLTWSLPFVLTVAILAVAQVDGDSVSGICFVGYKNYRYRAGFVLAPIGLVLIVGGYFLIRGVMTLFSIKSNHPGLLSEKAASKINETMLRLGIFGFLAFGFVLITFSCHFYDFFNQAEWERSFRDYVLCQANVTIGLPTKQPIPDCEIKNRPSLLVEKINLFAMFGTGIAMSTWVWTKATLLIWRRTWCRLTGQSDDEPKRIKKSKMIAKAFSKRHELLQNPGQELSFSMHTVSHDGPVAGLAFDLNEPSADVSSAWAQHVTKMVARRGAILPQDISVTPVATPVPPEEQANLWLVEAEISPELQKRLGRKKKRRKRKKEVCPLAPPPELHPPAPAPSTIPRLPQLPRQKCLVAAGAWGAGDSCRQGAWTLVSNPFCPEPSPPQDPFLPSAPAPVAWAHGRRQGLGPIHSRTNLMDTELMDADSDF

With `CCN(CC)c1ccc(/C=N/NC(=O)c2ccc(O)cc2)cc1` [DY131], the “effect on Cyc induced Smo cilial accumulation” value was “effectively compete with Cyc”.
